In US20040058980A1, “Useful aroyl pyrrole heteroaryl methanones and methanols” (priority 2001, published 2004):
Structures can show the parent of a compound that is named as a salt. Marks after values point to notes of the source that are not given here.

Columns and labels:
mechanical allodynia = test: Chung Model (spinal nerve ligation), mechanical allodynia with von Frey hairs; type: in vivo; parameters: key to Chung Model result in words (IA): IA: inactive at the screening dose; conditions: rat; for % MPE (Maximum Possible Effect) in the Chung Model / Chung Model result in words (IA): oral, screening dose (not given); for ED50 in the Chung Model: orally administered
Text: Procedure for Testing Antiallodynic Effect
The procedure used to detect the antiallodynic effect of a compound of the present invention for which there is a good correlation with human efficacy for the treatment of pain is the procedure for the measurement of allodynia found in the Chung Model (Kim S. H. and Chung J. M., An Experimental Model for Peripheral Neuropathy Produced by Segmental Spinal Nerve Ligation in the Rat, Pain, 1992, 50, 355-363). The antiallodynic effect of the composition of the present invention in the Chung Model is expressed in % MPE (Maximum Possible Effect).
Male Sprague-Dawley rats, weighing approximately 200 g each were anesthetized with isoflurane. The spinal nerve at the level of L5 was exposed through an incision just left of the dorsal midline and tightly ligated with 6-0 silk. At various times after surgery, animals were tested for mechanical allodynia with von Frey hairs (monofilaments which are calibrated to bend under a certain amount of pressure, ranging from 0.41 to 15.1 g). In order to calculate a paw withdrawal threshold (PWT), tactile allodynia was measured by recording the pressure at which the affected paw was withdrawn from graded stimuli according to the procedure of S. R. Chaplan, J. W. Pogrel, T. L. Yaksh, Role of Voltage-Dependent Calcium Channel Subtypes in Experimental Tactile Allodynia, J. Pharmacol. Exp. Ther., 1994, 269, 1117-1123. Normal rats can withstand at least 15 g of pressure without responding. Operated rats, however, can respond to as little as 0.25 g of pressure. The surgery was deemed successful if the animal responded with a PWT of less than 4 g of pressure applied to the affected paw. […] The PWT was used to calculate the % maximal possible effect (% MPE) according to the formula:
% MPE=100×[(PWT−CT)/(CO−CT)];
wherein PWT is defined as Paw Withdrawal Threshold, CT is Control Threshold, and CO is Cut Off (defined as 15 g).
The sham operation consisted of a similar surgery; the spinal nerve was visualized without being ligated.
Compounds selected from Formula (I) and Formula (II) were tested for activity in treating or modulating neuropathic pain by being dissolved or suspended in either water or hydroxypropyl methylcellulose, respectively. […] were fasted overnight prior to dosing. Animals were orally dosed and dosage volumes were calculated on a 4 mL/kg basis.

toxic extensor seizure = test: Mouse maximal electroshock test (MES), anticonvulsant model; type: in vivo; conditions: for MES Response, number of mice protected/number of mice tested: oral, 300 mpk
Experimental: Procedure for Testing in Mouse Anticonvulsant Model
The activity of the present compounds as anticonvulsant agents was determined using a standard mouse “maximal electroshock test” (MES). In this test, activity was indicated by a block of the […] extensor seizure, as described by Swinyard, et al. (J. Pharmacol. Exptl. Therap., 1952, 106, 319). A more recent description of current anticonvulsant drug screening is given in Swinyard, et al., in Epilepsia, 1978, 19, 409.
The anticonvulsant activity of the instant compounds is shown in Table 5 and was evaluated according to the Swinyard (1952) method. The abbreviations used in the table have the following meanings: mpk refers to the dose orally administered in “mg per Kg;” and, ED50 refers to the “50% Effective Dose” orally administered in mpk. The values marked by an * represent the number of mice protected/number of mice tested; therefore, a value of 3/3 represents that the number of mice protected matched the number of mice tested at the indicated dose.

[1] = system: voltage-gated sodium channels; test: [14C]guanidinium flux assay, veratridine-stimulated SK-N-SH cells; type: cell-based; conditions: 100 μM compound, 100 μM veratridine
Experimental: Screening Assay for Voltage-Gated Sodium Channel Antagonists
[^14C] Guanidinium Flux Assay
SK-N-SH neuroblastoma cells were maintained in a propagation medium containing modified Eagle's medium and 10% (v/v) fetal bovine serum and were incubated at 37° C. in a 5% CO2 atmosphere. Only cells with fewer than 20 passages were used in each assay. All drugs were prepared in DMSO, and the final concentration of solvent was less than 0.1% (v/v). Veratridine, a toxin that selectively promotes persistent activation of voltage-gated sodium channels, served as the stimulus.
SK-N—SH cells were plated at 1×10^5 cells/well in 96-well Cytostar-T microscintillating plates in propagation medium and experiments were performed 6-7 days after plating. Prior to assay, the SK-N-SH cells were washed twice with assay buffer containing 50 mM HEPES (pH 7.45), 5.4 mM potassium chloride, 0.8 mM magnesium chloride, 130 mM choline chloride, 5.5 mM glucose and 0.1 mg/mL bovine serum albumin. Next, the plates were allowed to equilibrate for 10 min at 37° C. in assay buffer. […] The 96-well dosing plate was prepared by mixing 25 μL of a drug/assay buffer solution per well with 25 μL of 0.7 μCi/mL [^14C]guanidine hydrochloride in assay buffer. […] The plates were incubated for 1 hr at room temperature and the radioactivity was counted in a 1450 Microbeta scintillation counter. […]

SMILES	melting point [°C]	also measured
Cn1cc(C(=O)c2cc[n+]([O-])cc2)cc1C(=O)c1ccc(Cl)cc1 [Cpd 15, (4-Chlorophenyl)-[1-methyl-4-(1-oxypyridine-4-carbonyl)-1H-pyrrol-2-yl]methanone]		% MPE (Maximum Possible Effect) in the Chung Model (mechanical allodynia): 7.9%
Cl.Cn1cc(C(=O)c2ccncc2)cc1C(=O)c1cccs1 [Cpd 4, [1-Methyl-5-(thiophene-2-carbonyl)-1H-pyrrol-3-yl]pyridin-4-ylmethanone Hydrochloride]	243 to 245	Chung Model result in words (IA) (mechanical allodynia): IA; MES Response, number of mice protected/number of mice tested (toxic extensor seizure): 0/1* @ 300 mpk
Cn1cc(C(=O)c2ccc(Cl)cc2)cc1C(=O)c1ccc(Cl)nc1 [Cpd 9, (4-Chlorophenyl)-[5-(6-chloropyridine-3-carbonyl)-1-methyl-1H-pyrrol-3-yl]methanone]	150 to 152	
Cl.Cn1cc(C(=O)c2cccnc2)cc1C(=O)c1ccc(Cl)cc1.Cn1cc(C(=O)c2cccnc2)cc1C(=O)c1ccc(Cl)cc1.O [Cpd 5, [5-(4-Chlorobenzoyl)-1-methyl-1H-pyrrol-3-yl]pyridin-3-ylmethanone Hydrochoride Hydrate [2:1:1]]		% MPE (Maximum Possible Effect) in the Chung Model (mechanical allodynia): 9%
Cl.Cn1cc(C(=O)c2ccc(F)cc2)cc1C(=O)c1cccnc1 [Cpd 7, (4-Fluorophenyl)-[1-methyl-5-(pyridine-3-carbonyl)-1H-pyrrol-3-yl]methanone Hydrochloride]	220 to 223	ED50 in the Chung Model (mechanical allodynia): ED50 = 22 mpk
Cn1cc(C(O)c2ccncc2)cc1C(=O)c1ccc(Cl)cc1 (stereo not drawn) [Cpd 12, (4-Chlorophenyl)-[4-(hydroxypyridin-4-yl-methyl)-1-methyl-1H-pyrrol-2-yl]-methanone]	145 to 146	% GFI (% guanidinium flux inhibition) @ 100 μM [1]: 4 @ 100%
Cc1c(C(O)c2ccncc2)c(C)n(C)c1C(=O)c1ccc(Cl)cc1 (stereo not drawn) (as salt: hydrochloride) [Cpd 18, (4-Chlorophenyl)-[4-(hydroxypyridin-4-yl-methyl)-1,3,5-trimethyl-1H-pyrrol-2-yl]methanone]	174 to 176	
Cn1cc(C(=O)c2ccc(F)cc2)cc1C(=O)c1ccccn1 [Cpd 10, (4-Fluorophenyl)-[1-methyl-5-(pyridine-2-carbonyl)-1H-pyrrol-3-yl]methanone]	159 to 161	MES Response, number of mice protected/number of mice tested (toxic extensor seizure): 0/1* @ 300 mpk
Cn1cc(C(=O)c2cnc[nH]2)cc1C(=O)c1ccc(Cl)cc1 [Cpd 13, (4-Chlorophenyl)-[4-(3H-imidazole-4-carbonyl)-1-methyl-1H-pyrrol-2-yl]methanone]	198 to 200	Chung Model result in words (IA) (mechanical allodynia): IA
Cc1ccc(C(=O)c2cc(C(=O)c3ccncc3)cn2C)cc1.Cl [Cpd 3, [1-Methyl-5-(4-methyl benzoyl)-1H-pyrrol-3-yl]pyridin-4-ylmethanone Hydrochloride]	134 to 136	
Cn1cc(C(=O)c2ccncc2)cc1C(=O)c1ccc(Cl)cc1 [Cpd 1, [5-(4-Chlorobenzoyl)-1-methyl-1H-pyrrol-3-yl]pyridin-4-ylmethanone]	174 to 175	ED50 in the Chung Model (mechanical allodynia): ED50 = 22 mpk; MES Response ED50 (toxic extensor seizure; orally administered): ED50 = 156.97 mpk
Cn1cc(C(=O)c2ccnc(Cl)c2)cc1C(=O)c1ccc(Cl)cc1 [Cpd 19, (4-Chlorophenyl)-[4-(2-chloropyridine-4-carbonyl)-1-methyl-1H-pyrrol-2-yl]methanone]	182 to 184	
Cn1cc(C(=O)c2ccncc2)cc1C(=O)c1ccccc1 [Cpd 2, (5-Benzoyl-1-methyl-1H-pyrrol-3-yl) pyridin-4-ylmethanone]	127 to 129	
Cn1cc(C(=O)c2ccccn2)cc1C(=O)c1ccc(Cl)cc1 [Cpd 6, [5-(4-Chlorobenzoyl)-1-methyl-1H-pyrrol-3-yl]pyridin-2-yl-methanone]	138 to 139	
Cn1cc(C(=O)c2ccc3ccccc3c2)cc1C(=O)c1cccnc1 [Cpd 8, [1-Methyl-5-(pyridine-3-carbonyl)-1H-pyrrol-3-yl]naphthalen-2-yl-methanone]	132 to 133	MES Response, number of mice protected/number of mice tested (toxic extensor seizure): 0/1* @ 300 mpk
Cn1cc(C(=O)c2ccc(F)cc2)cc1C(=O)c1ccncc1 [Cpd 11, (4-Fluorophenyl)-[1-methyl-5-(pyridine-4-carbonyl)-1H-pyrrol-3-yl]methanone]	155 to 157	MES Response, number of mice protected/number of mice tested (toxic extensor seizure): 0/1* @ 300 mpk
Cc1c(C(=O)c2ccc(F)cc2)c(C)n(C)c1C(=O)c1cccnc1 [Cpd 17, (4-Fluorophenyl)-[1,2,4-trimethyl-5-(pyridine-3-carbonyl)-1H-pyrrol-3-yl]methanone]	85 to 88	
